# Experimental data published in publication PMC3446762 (Viruses, 2012).
# Legend:
# EBOV = conditions: 20 µM; cited from earlier work
# host cells = conditions: cited from earlier work
# EBOV Zaire-95 isolate = assay type: cell-based, Ebola (EBOV)
# MARV Ci67 isolate = assay type: cell-based, Marburg (MARV)
# HeLa cells [1] = conditions: human
# HeLa cells [2] = conditions: human; remark: listed apart in the source
SMILES,EBOV inhibition (EBOV),toxicity to host cells (host cells),cellular protection during EBOV infection (EBOV Zaire-95 isolate),cellular protection during MARV infection (MARV Ci67 isolate),"cellular toxicity (reduction in cell number), EBOV assay (HeLa cells [1])","cellular toxicity (reduction in cell number), MARV assay (HeLa cells [2])"
CCN(CC)CCCNc1cc(C)nc2ccc3c(ccc4nc(C)cc(NCCCN(CC)CC)c43)c12 [Compound 2],13%,toxic to host cells,,,,
Cc1cc(NCCN2CCOCC2)c2c(ccc3c2ccc2nc(C)cc(NCCN4CCOCC4)c23)n1 [Compound 1],53%,non-toxic to host cells,,,,
CCN(CC)CCCNc1ccnc2ccc3c(ccc4nccc(NCCCN(CC)CC)c43)c12 [Compound 4],,,100%,100%,80–90%,80–90%
